Tests used:
[1] = Intravenous glucose tolerance test (IVGTT) in rats; assay type: in vivo, rat; conditions: 50 mg kg^−1 tail vein
Description: Eight give-week old healthy Sprague-Dawley rats (Charles River) were caged in pairs. The animals were allowed to acclimatize to their new surroundings at the Simon Fraser University Animal Care Facilities (SFU ACF) for one week. At 3:00 pm, four rats were given a tail vein injection of 400 μl of inhibitor 9c dissolved in PBS buffer (pH 7.4) at a dose of 50 mg kg^−1. The remaining four rats were given a tail vein injection of 400 μl of PBS as a control. All solutions were pre-sterilized through a 0.2 μm filter (Millipore) and injected with 0.5 mL syringes containing a 28 gauge×0.5″ needle (Terumo) as bolus over 10 seconds. Food was withdrawn at approximately 11:00 pm. At 8:30 am the following morning, the rats were given a second injection. After three hours the rats were anesthetized with isoflurane and a 100 μL blood sample was taken from the jugular vein to measure the fasting blood glucose levels. An intravenous glucose tolerance test (IVGTT) was then performed. A 0.5 mL injection of a 50% w/v solution of glucose dissolved in PBS (pre-sterilized) was administered via the tail vein over 30 seconds. At 10, 20, 30, 40, 60, and 90 minutes after the injection of glucose, a 100 μL sample of blood was taken from the jugular vein. […] The soluble cell extract was then analyzed for levels O-GlcNAc modified proteins using Western blot analysis as described above for the cell studies.

O-GlcNAcase [2] = biological target: T1, O-GlcNAcase (Homo sapiens, UniProt O60502)
T1 sequence (O60502 1-916): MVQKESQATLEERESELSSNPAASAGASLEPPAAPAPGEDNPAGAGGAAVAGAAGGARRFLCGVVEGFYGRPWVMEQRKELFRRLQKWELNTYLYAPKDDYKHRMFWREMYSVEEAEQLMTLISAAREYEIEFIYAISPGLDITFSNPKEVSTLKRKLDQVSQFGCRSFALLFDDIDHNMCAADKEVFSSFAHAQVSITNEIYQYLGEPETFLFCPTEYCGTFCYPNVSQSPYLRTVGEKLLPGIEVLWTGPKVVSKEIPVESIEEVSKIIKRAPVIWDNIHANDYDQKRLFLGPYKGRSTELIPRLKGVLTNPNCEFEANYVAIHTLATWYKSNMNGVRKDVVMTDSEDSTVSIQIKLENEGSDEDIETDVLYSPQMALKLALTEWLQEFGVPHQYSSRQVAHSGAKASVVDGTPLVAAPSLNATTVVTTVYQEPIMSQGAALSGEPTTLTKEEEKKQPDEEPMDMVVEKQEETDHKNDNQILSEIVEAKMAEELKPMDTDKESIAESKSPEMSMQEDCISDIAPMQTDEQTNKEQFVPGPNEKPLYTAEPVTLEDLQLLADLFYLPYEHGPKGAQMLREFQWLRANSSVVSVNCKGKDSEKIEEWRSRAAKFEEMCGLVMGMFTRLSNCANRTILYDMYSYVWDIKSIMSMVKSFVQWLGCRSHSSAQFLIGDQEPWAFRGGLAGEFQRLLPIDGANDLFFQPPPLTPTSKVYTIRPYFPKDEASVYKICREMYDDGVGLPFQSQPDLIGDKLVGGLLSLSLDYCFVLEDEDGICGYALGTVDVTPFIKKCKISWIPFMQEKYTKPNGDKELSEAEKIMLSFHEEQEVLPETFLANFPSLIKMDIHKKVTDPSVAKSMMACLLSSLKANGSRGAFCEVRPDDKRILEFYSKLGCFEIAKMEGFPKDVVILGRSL

O-GlcNAcase [3] = biological target: T1, O-GlcNAcase; experiment: biochemical
[4] = system: O-GlcNAc modified proteins in rat tissues; experiment: Oral availability: tissue O-GlcNAc levels in rats fed inhibitor in chow; assay type: in vivo
Description: To determine if the inhibitor 9c is orally available, it was incorporated into the chow (Lab Diet 5001 Rodent Diet, PMI Nutrition International, LLC). To make the rat chow, 600 g of the ground chow was mixed with 355 ml of water and 5 μL of the inhibitor dissolved in ethanol. Small pieces were then prepared with a pasta machine (Pasta Express, Creative) and dehydrated overnight at 37° C. (Snackmaster Dehydrator, American Harvest). Five sets of chow were made with the following amounts of inhibitor: 0 mg kg^−1 days^−1, 100 or 1000 mg kg^−1 days^−1 of the deprotected (polar) inhibitor, and 100 or 1000 mg kg^−1 day^−1 of the protected (non-polar) inhibitor. […] Ten five-week old healthy Sprague-Dawley rats (two per set of food) were then allowed to feed on the rat chow for three days. The animals were then sacrificed and tissues were collected, homogenized, and analyzed as described above.

[5] = system: O-GlcNAc modified proteins in rat tissues; experiment: Western blot of O-GlcNAc modified proteins in tissues of rats after tail vein injection of varying doses; assay type: in vivo
Description: Four rats were treated by tail vein injection of different doses of inhibitor 9c or a buffer control. Two sequential injections were performed approximately 18 hours apart and the rats were then sacrificed 24 hours after the first injection. Western blot analyses using an α-O-GlcNAc antibody (CTD110.6) clearly indicate that the inhibitor 9c easily gains access into a variety of tissues including brain (A), muscle (B) and liver (C) and doses as low as 50 mg kg-1 are almost enough to elicit a maximal increase in O-GlcNAc levels.
Eight give-week old healthy Sprague-Dawley rats (Charles River) were caged in pairs. The animals were allowed to acclimatize to their new surroundings at the Simon Fraser University Animal Care Facilities (SFU ACF) for one week. At 3:00 pm, four rats were given a tail vein injection of 400 μl of inhibitor 9c dissolved in PBS buffer (pH 7.4) at a dose of 50 mg kg^−1. The remaining four rats were given a tail vein injection of 400 μl of PBS as a control. All solutions were pre-sterilized through a 0.2 μm filter (Millipore) and injected with 0.5 mL syringes containing a 28 gauge×0.5″ needle (Terumo) as bolus over 10 seconds. Food was withdrawn at approximately 11:00 pm. At 8:30 am the following morning, the rats were given a second injection. After three hours the rats were anesthetized with isoflurane and a 100 μL blood sample was taken from the jugular vein to measure the fasting blood glucose levels. An intravenous glucose tolerance test (IVGTT) was then performed. A 0.5 mL injection of a 50% w/v solution of glucose dissolved in PBS (pre-sterilized) was administered via the tail vein over 30 seconds. At 10, 20, 30, 40, 60, and 90 minutes after the injection of glucose, a 100 μL sample of blood was taken from the jugular vein. Immediately following blood sampling, a small aliquot of the blood was used to measure the blood glucose concentration using a glucometer (Accu-Check Advantage, Roche) and the remaining blood was stored on ice for 20 minutes and spun down to isolate the serum. Following completion of the IVGTT, the rats were sacrificed with 1:1 mixture of CO2/O2. Tissue samples (brain, muscle, liver, spleen, pancreas, fat) were immediately harvested and flash frozen with liquid nitrogen and stored at −80° C. To homogenize the tissues to obtain a cell extract, tissue were kept frozen while they were ground with a mortal and pestle into a fine powder. 100 mg of the powder was then homogenized in 1 mL of cold lysis buffer (50 mM Tris, 0.5% sodium deoxycholate, 0.1% SDS, 1% nonidet P-40, 1 mM EDTA, 1 mM PMSF, and 1 mM butyl-NAG-thiazoline) using two 10 second pulse on a Jenke and Kunkel Ultra-Turrax tissue homogenizer tissue homogenizer. Tissues were then spun down at 13,000 rpm in a microcentrifuge (eppendrof) to remove the cell debris. The soluble cell extract was then analyzed for levels O-GlcNAc modified proteins using Western blot analysis as described above for the cell studies.

[6] = rats fed inhibitor in food for three days

KI for O-GlcNAcase greater than that of parent compound (9a) (O-GlcNAcase [2]): 3 fold
inhibition of O-GlcNAcase, in words (O-GlcNAcase [2]): potent inhibitors
selectivity for O-GlcNAcase over β-hexosaminidase, in words (O-GlcNAcase [2]): remarkable selectivity
selectivity ratio for O-GlcNAcase over β-hexosaminidase (O-GlcNAcase [2]): 1500 fold
Selectivity Ratio (β-Hex KI/O-GlcNAcase KI) (O-GlcNAcase [2]; Table 2): 1500
Ki (O-GlcNAcase [3]): 0.23 µM
discomforts of treated rats compared to the control rat ([5]; tail vein injection): did not appear to show any discomforts
time in which the inhibitor gains access to a wide variety of tissues ([5]; tail vein injection): less than 24 hours
Structure (SMILES): CCCC1=N[C@@H]2[C@@H](O)[C@H](O)[C@@H](CO)O[C@@H]2S1 [Compound 9c, 1,2-dideoxy-2′-propyl-α-D-glucopyranoso-[2,1-d]-2′-thiazoline]
levels of O-GlcNAc modified proteins in rats of the IVGTT ([1]; Western blot): increased levels
glucose clearance rate in IVGTT ([1]; short term exposure (<24 hours), 1 g kg^−1 glucose challenge): does not affect the glucose clearance rate
cellular levels of O-GlcNAc modified proteins in brain tissue, oral 100 mg/kg/day ([4]; rats fed inhibitor in chow for three days): marked increases
cellular levels of O-GlcNAc modified proteins in brain tissue, oral 1000 mg/kg/day ([4]; rats fed inhibitor in chow for three days, compared with 100 mg/kg/day): even greater
O-GlcNAc modified proteins in brain, muscle, pancreas, fat and spleen, oral 100 mg kg^−1 day^−1 (FIG. 12 legend) [4, 6]: large increases
O-GlcNAc modified proteins in tissues, oral 1000 mg kg^−1 days^−1 (FIG. 12 legend) [4, 6]: slightly greater increases
dose enough to elicit the maximal increase in O-GlcNAc modified proteins ([5]; tail vein injection): 50 mg/kg
time for which the inhibitor retains an effect ([5]; tail vein injection): ≥ 6 h
cellular levels of O-GlcNAc modified proteins in brain tissue ([5]; tail vein injection, 50, 120 and 300 mg/kg, compared to controls): marked increases
dose almost enough to elicit a maximal increase in O-GlcNAc levels ([5]; tail vein injection, brain, muscle, liver): ~50 mg/kg
